Experimental findings from patent US8501744B2, “Piperazine compounds” (Amura Therapeutics, Limited, priority 2008, dated 2013) are described below.

This assay deals with Human recombinant cathepsin K (Homo sapiens (Human), UniProt P43235). As to the kind of experiment: In vitro cathepsin Ki inhibition measurements. Particulars: for Ki: human recombinant cathepsin K, pH 5.5, Z-Leu-Arg-AMC substrate, read-out: In vitro Ki (nM) vs Cath K; for fold improvement in in vitro potency against human cathepsin K: relative to closest prior art compound (42). The format is biochemical. The protocol:
Stock solutions of substrate or inhibitor were made up to 10 mM in 100% dimethylsulfoxide (DMSO) (Rathburns, Glasgow, U.K.) and diluted as appropriately required. In all cases the DMSO concentration in the assays was maintained at less than 1% (vol./vol.). The equilibrium inhibition constants (Ki^ss) for each compound were measured under steady-state conditions monitoring enzyme activity as a function of inhibitor concentration. The values were calculated on the assumption of pure competitive behaviour (Cornish-Bowden, A. Fundamentals of enzyme kinetics Portland Press; 1995, 93-128.). Human recombinant cathepsin K (0.25 nM final; B. Turk, Josef, Stefan Institute, Ljubljana, Slovenia), was routinely assayed in 100 mM sodium acetate; pH 5.5 containing 1 mM EDTA, 10 mM L-cysteine and 1.8 μM Z-Leu-Arg-AMC ([S]=KM).
The apparent inhibition constant (Ki) for each compound was determined on the basis that inhibition was reversible and occurred by a pure-competitive mechanism. The Ki values were calculated, from the dependence of enzyme activity as a function of inhibitor concentration, by direct regression analysis (Prism v 3.02) using Equation 2 (Cornish-Bowden, A., 1995.).
In situations where the apparent dissociation constant (Ki^app) approached the enzyme concentrations, the Ki^app values were calculated using a quadratic solution in the form described by Equation 3 (Morrison, J. F. Trends Biochem. Sci., 7, 102-105, 1982; Morrison, J. F. Biochim. Biophys. Acta. 185, 269-286, 1969; Stone, S. R. and Hofsteenge, J. Biochemistry, 25, 4622-4628, 1986).
Curves were fitted by non-linear regression analysis (Prism) using a fixed value for the enzyme concentration. Equation 4 was used to account for the substrate kinetics, where ‘Ki’ is the inhibition constant, ‘[So]’ is the initial substrate concentration and ‘KM^app’ is the apparent macroscopic binding (Michaelis) constant for the substrate (Morrison, 1982).

Sequence of Human recombinant cathepsin K (P43235 115-329): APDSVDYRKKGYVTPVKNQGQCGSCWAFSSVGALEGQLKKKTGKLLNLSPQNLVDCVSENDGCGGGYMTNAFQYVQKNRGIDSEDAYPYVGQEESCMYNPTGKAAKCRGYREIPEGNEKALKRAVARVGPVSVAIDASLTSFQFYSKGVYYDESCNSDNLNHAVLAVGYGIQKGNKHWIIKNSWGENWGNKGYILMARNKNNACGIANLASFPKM

For orientation: Ki means the equilibrium dissociation constant of an inhibitor or competing ligand from its target. For `CC(C)[C@@H]1CN(C(=O)[C@@H](NC(=O)c2ccc(N3CCN(C)CC3)cc2)C2CCCC2)[C@@H]2C(=O)CO[C@@H]21` [Example 28, N—((S)-1-cyclopentyl-2-((3aS,6R,6aR)-6-isopropyl-3-oxodihydro-2H-furo [3,2-b]pyrrol-4(5H,6H,6aH)-yl)-2-oxoethyl)-4-(4-methylpiperazin-1-yl)benzamide], the Ki came out at 1.5 nM and the “fold improvement in in vitro potency against human cathepsin K” value (from here on “fold improvement in in vitro potency”) worked out at 5.8 fold.
`CC(C)[C@H]1CN(C(=O)[C@@H](NC(=O)c2ccc(N3CCN(C)CC3)cc2)C(C)(C)C)[C@@H]2C(=O)CO[C@H]12` [Example 26, N—((S)-1-((3aS,6S,6aR)-6-isopropyl-3-oxodihydro-2H-furo[3,2-b]pyrrol-4 (5H,6H,6aH)-yl)-3,3-dimethyl-1-oxobutan-2-yl)-4-(4-methylpiperazin-1-yl)benzamide]: the Ki worked out at 0.8 nM.
For `C[C@H]1CN(C(=O)[C@@H](NC(=O)c2ccc(N3CCN(C)CC3)cc2)C2CCCC2)[C@@H]2C(=O)CO[C@@H]21` [Example 7, N—((S)-1-cyclopentyl-2-((3aS,6S,6aR)-6-methyl-3-oxodihydro-2H-furo [3,2-b]pyrrol-4(5H,6H,6aH)-yl)-2-oxoethyl)-4-(4-methylpiperazin-1-yl)benzamide], the Ki turned out to be 0.35 nM and the “fold improvement in in vitro potency” value stood at 24.9 fold.
With `CC(C)C[C@H](NC(=O)c1ccc(N2CCN(C)CC2)cc1)C(=O)N1C[C@H](C(F)F)[C@H]2OCC(=O)[C@H]21` [Example 12, N—((S)-1-((3aS,6S,6aR)-6-(difluoromethyl)-3-oxodihydro-2H-furo[3,2-b]pyrrol-4(5H,6H,6aH)-yl)-4-methyl-1-oxopentan-2-yl)-4-(4-methylpiperazin-1-yl)benzamide], the Ki is 0.8 nM and the “fold improvement in in vitro potency” value is reported as 10.9 fold.
Take `CC(C)C[C@H](NC(=O)c1ccc(N2CCN(C)CC2)cc1)C(=O)N1C[C@H](C)[C@H]2OCC(=O)[C@H]21` [Example 5, N—((S)-4-methyl-1-((3aS,6S,6aR)-6-methyl-3-oxodihydro-2H-furo[3,2-b]pyrrol-4(5H,6H,6aH)-yl)-1-oxopentan-2-yl)-4-(4-methylpiperazin-1-yl)benzamide]: the Ki was 0.75 nM and the “fold improvement in in vitro potency” value was determined as 11.6 fold.
In the same order, the values of `CC[C@@H]1CN(C(=O)[C@@H](NC(=O)c2ccc(N3CCN(C)CC3)cc2)C2CCCC2)[C@@H]2C(=O)CO[C@H]12` [Example 27, N—((S)-1-cyclopentyl-2-((3aS,6R,6aR)-6-ethyl-3-oxodihydro-2H-furo[3,2-b]pyrrol-4(5H,6H,6aH)-yl)-2-oxoethyl)-4-(4-methylpiperazin-1-yl)benzamide] are 1.2 nM and 7.3 fold.
For `CC(C)[C@@H]1CN(C(=O)[C@@H](NC(=O)c2ccc(N3CCN(C)CC3)cc2)C(C)(C)C)[C@@H]2C(=O)CO[C@@H]21` [Example 24, N—((S)-1-((3aS,6R,6aH)-6-isopropyl-3-oxodihydro-2H-furo[3,2-b]pyrrol-4(5H,6H,6aH)-yl)-3,3-dimethyl-1-oxobutan-2-yl)-4-(4-methylpiperazin-1-yl)benzamide], the Ki turned out to be 3.2 nM.
`CC[C@@H]1CN(C(=O)[C@@H](NC(=O)c2ccc(N3CCN(C)CC3)cc2)C(C)(C)C)[C@@H]2C(=O)CO[C@H]12` [Example 23, N—((S)-1-((3aS,6R,6aR)-6-ethyl-3-oxodihydro-2H-furo[3,2-b]pyrrol-4(5H,6H,6aH)-yl)-3,3-dimethyl-1-oxobutan-2-yl)-4-(4-methylpiperazin-1-yl)benzamide]: the Ki was found to be 4.4 nM.
For the compound `C[C@@H]1CN(C(=O)[C@@H](NC(=O)c2ccc(N3CCN(C)CC3)cc2)C2CCCC2)[C@@H]2C(=O)CO[C@H]12` [Example 4, N—((S)-1-cyclopentyl-2-((3aS,6R,6aR)-6-methyl-3-oxodihydro-2H-furo[3,2-b]pyrrol-4(5H,6H,6aH)-yl)-2-oxoethyl)-4-(4-methylpiperazin-1-yl)benzamide], the Ki came to 1 nM and the “fold improvement in in vitro potency” value is reported as 8.7 fold.
On to `CC(C)C[C@H](NC(=O)c1ccc(-c2csc(N3CCN(C)CC3)n2)cc1)C(=O)N1C[C@@H](C)[C@H]2OCC(=O)[C@H]21` [Example 16, N—((S)-4-methyl-1-((3aS,6R,6aR)-6-methyl-3-oxodihydro-2H-furo[3,2-b]pyrrol-4(5H,6H,6aH)-yl)-1-oxopentan-2-yl)-4-(2-(4-methylpiperazin-1-yl)thiazol-4-yl)benzamide], for which the Ki was found to be 0.7 nM.
`CC(C)C[C@H](NC(=O)c1ccc(N2CCN(C)CC2)cc1)C(=O)N1C[C@@H](C(F)F)[C@H]2OCC(=O)[C@H]21` [Example 8, N—((S)-1-((3aS,6R,6aR)-6-(difluoromethyl)-3-oxodihydro-2H-furo[3,2-b]pyrrol-4(5H,6H,6aH)-yl)-4-methyl-1-oxopentan-2-yl)-4-(4-methylpiperazin-1-yl)benzamide]: the Ki worked out at 1.7 nM and the “fold improvement in in vitro potency” value turned out to be 5.7 fold.
Turning to `CC(C)C[C@H](NC(=O)c1ccc(N2CCN(C)CC2)cc1)C(=O)N1C[C@@H](C)[C@H]2OCC(=O)[C@H]21` [Example 1, N—((S)-4-methyl-1-((3aS,6R,6aR)-6-methyl-3-oxodihydro-2H-furo[3,2-b]pyrrol-4(5H,6H,6aH)-yl)-1-oxopentan-2-yl)-4-(4-methylpiperazin-1-yl)benzamide], the Ki was 2.5 nM and the “fold improvement in in vitro potency” value is recorded as 3.5 fold.
Turning to `CC[C@H]1CN(C(=O)[C@@H](NC(=O)c2ccc(N3CCN(C)CC3)cc2)C2CCCC2)[C@@H]2C(=O)CO[C@H]12` [Example 29, N—((S)-1-cyclopentyl-2-((3aS,6S,6aR)-6-ethyl-3-oxodihydro-2H-furo[3,2-b]pyrrol-4(5H,6H,6aH)-yl)-2-oxoethyl)-4-(4-methylpiperazin-1-yl)benzamide], the Ki was found to be 0.4 nM and the “fold improvement in in vitro potency” value is on record as 22.9 fold.
As to `CC[C@H]1CN(C(=O)[C@@H](NC(=O)c2ccc(N3CCN(C)CC3)cc2)C(C)(C)C)[C@@H]2C(=O)CO[C@H]12` [Example 25, N—((S)-1-((3aS,6S,6aR)-6-ethyl-3-oxodihydro-2H-furo[3,2-b]pyrrol-4(5H,6H,6aH)-yl)-3,3-dimethyl-1-oxobutan-2-yl)-4-(4-methylpiperazin-1-yl)benzamide], the Ki worked out at 0.8 nM.
With `CC(C)[C@H]1CN(C(=O)[C@@H](NC(=O)c2ccc(N3CCN(C)CC3)cc2)C2CCCC2)[C@@H]2C(=O)CO[C@H]12` [Example 30, N—((S)-1-cyclopentyl-2-((3aS,6S,6aR)-6-isopropyl-3-oxodihydro-2H-furo[3,2-b]pyrrol-4(5H,6H,6aH)-yl)-2-oxoethyl)-4-(4-methylpiperazin-1-yl)benzamide], the Ki was 0.45 nM and the “fold improvement in in vitro potency” value amounted to 18.9 fold.
